Here are results for 26 compounds from BindingDB's records for doi:10.7270/Q2N58K09 (The Scripps Research Institute Molecular Screening Center, 2013).

For orientation: IC50 means the concentration needed to halve the response being measured.

Huntingtin, sequence (P42858 whole entry): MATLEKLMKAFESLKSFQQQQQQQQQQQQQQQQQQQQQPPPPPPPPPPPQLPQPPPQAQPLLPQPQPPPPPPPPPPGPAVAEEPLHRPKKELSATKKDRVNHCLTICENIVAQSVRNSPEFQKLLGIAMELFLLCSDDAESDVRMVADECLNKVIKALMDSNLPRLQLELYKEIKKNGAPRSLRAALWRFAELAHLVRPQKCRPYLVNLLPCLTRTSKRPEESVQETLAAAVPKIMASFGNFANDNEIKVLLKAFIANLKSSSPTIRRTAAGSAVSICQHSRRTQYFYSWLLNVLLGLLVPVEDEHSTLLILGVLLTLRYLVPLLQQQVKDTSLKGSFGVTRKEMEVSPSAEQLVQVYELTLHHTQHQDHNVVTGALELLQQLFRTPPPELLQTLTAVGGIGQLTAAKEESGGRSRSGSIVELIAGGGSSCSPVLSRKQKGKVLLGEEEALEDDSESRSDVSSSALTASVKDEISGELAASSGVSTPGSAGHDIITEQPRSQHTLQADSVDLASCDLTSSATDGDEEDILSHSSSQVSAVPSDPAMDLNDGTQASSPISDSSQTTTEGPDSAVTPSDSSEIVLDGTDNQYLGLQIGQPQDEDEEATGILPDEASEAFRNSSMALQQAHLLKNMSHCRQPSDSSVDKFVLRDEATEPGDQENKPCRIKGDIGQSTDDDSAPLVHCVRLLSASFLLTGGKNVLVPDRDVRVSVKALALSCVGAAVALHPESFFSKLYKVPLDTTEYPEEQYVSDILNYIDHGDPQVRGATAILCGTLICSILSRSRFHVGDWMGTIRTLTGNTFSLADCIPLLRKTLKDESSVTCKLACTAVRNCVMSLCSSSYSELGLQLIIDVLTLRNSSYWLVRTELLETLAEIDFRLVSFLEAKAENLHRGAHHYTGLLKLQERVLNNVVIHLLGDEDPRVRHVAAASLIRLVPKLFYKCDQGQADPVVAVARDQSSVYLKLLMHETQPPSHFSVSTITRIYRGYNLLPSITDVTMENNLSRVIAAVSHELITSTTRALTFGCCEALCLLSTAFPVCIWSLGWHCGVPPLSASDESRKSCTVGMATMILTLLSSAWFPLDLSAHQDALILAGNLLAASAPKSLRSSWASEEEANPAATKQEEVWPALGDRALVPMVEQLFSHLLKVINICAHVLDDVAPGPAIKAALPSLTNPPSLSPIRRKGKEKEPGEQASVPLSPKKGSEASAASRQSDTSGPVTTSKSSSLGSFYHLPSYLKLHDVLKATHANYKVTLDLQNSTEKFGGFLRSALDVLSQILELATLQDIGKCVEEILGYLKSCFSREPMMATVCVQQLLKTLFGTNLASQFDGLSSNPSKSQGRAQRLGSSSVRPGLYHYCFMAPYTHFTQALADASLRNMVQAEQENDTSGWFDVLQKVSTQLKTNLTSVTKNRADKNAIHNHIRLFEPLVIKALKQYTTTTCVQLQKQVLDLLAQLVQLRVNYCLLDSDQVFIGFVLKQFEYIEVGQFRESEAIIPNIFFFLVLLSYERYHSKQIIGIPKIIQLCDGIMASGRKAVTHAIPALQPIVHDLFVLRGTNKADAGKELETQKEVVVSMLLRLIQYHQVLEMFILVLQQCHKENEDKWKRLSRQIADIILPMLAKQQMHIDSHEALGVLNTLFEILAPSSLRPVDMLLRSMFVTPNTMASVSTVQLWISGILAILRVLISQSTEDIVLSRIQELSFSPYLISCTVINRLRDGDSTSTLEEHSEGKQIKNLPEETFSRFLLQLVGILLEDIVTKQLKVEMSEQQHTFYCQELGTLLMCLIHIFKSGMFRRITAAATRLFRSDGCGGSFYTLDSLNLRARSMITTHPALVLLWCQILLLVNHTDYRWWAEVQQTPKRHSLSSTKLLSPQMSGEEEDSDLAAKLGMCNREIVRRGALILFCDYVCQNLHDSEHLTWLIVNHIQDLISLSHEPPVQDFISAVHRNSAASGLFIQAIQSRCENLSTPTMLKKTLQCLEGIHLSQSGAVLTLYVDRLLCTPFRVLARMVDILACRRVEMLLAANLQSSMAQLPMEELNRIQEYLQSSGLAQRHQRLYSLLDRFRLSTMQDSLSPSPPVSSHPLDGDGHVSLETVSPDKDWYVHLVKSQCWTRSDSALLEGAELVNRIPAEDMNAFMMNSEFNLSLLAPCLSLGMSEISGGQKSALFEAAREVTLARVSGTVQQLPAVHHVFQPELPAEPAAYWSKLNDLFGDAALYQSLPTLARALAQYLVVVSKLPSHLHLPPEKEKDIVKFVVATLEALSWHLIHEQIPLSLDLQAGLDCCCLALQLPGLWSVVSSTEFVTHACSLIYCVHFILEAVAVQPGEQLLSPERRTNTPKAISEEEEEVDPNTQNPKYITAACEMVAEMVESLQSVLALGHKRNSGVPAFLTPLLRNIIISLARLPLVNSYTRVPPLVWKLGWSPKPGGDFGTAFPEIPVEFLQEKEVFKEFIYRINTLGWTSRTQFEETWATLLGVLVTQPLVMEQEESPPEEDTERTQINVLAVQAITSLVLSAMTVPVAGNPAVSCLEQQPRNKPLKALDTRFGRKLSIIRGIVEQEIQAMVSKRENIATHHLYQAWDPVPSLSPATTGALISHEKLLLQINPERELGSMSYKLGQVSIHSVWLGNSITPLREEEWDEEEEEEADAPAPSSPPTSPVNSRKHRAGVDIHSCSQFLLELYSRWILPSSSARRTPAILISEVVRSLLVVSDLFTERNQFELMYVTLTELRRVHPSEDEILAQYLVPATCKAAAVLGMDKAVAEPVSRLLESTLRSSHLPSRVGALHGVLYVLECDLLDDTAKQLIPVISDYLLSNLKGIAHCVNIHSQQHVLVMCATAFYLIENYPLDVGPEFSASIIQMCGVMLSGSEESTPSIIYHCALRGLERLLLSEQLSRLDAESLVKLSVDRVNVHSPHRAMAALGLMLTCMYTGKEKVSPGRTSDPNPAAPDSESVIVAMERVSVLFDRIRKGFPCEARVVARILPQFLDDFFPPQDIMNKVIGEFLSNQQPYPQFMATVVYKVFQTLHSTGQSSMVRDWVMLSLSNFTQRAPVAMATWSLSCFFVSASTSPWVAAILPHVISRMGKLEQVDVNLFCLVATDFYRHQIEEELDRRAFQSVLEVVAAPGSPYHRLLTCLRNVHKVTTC

The test concerns the target Huntingtin (Homo sapiens, UniProt P42858).
In the case of `CCc1nnc(NS(=O)(=O)c2ccc(N=CCC(=O)c3ccc(C)cc3)cc2)s1` [SMR000211931], inhibition was half-maximal at 1900 nM (IC50).
The compound `CC(C)c1ccc(C2c3[nH]c4ccccc4c3Cc3c(O)n(-c4ccccc4C(=O)N4CCC[C@H]4C(=O)O)c(=O)n32)cc1` (stereo partly specified) returned an IC50 of 3350 nM.
The result for `COC1=CC(=Cc2c(-c3ccccc3)[nH]n(-c3ccc(NC(C)=O)cc3)c2=O)C=CC1=O` [SMR000299432] reads 2900 nM; that for `CC(=NNC(=N)Sc1cc(O)n(-c2cccc(Cl)c2)c1O)c1cccs1` [MLS000579124], 5190 nM; that for `CCOC(=O)C1=C(C)N=C(SCc2cc(=O)[nH][nH]2)C(C#N)C1c1cccs1` (stereo unspecified) [5-cyano-2-methyl-6-[(5-oxo-1,2-dihydropyrazol-3-yl)methylthio]-4-thiophen-2-yl-1,4-dihydropyridine-3-carboxylic acid ethyl ester], 7400 nM.
The result for `N#CC(C#N)C(=Nc1ccc(F)cc1)SCc1cccc(Br)c1` [2-[(3-bromophenyl)methylsulfanyl-[(4-fluorophenyl)amino]methylidene]propanedinitrile] reads 7570 nM.
On to `N#CC1=c2sc(=Cc3ccco3)c(=O)n2C(=N)C(C#N)C1c1ccco1` (stereo unspecified) [5-amino-7-(furan-2-yl)-2-(furan-2-ylmethylidene)-3-oxo-7H-[1,3]thiazolo[3,2-a]pyridine-6,8-dicarbonitrile], for which 5380 nM corresponded to half-maximal inhibition (IC50).
Take `C=c1c(C#N)c2[nH]c(N)c(C#N)c(C)c-2c1=Cc1ccc(-c2ccccc2C(=O)O)o1` [SMR000277284]: 2570 nM corresponded to half-maximal inhibition (IC50).
The result for `CC(C)c1ccc(C2c3[nH]c4ccccc4c3Cc3c(O)n(-c4ccccc4C(=O)N4CCC[C@@H]4C(=O)O)c(=O)n32)cc1` (stereo partly specified) reads 2840 nM; that for `N=C(NN=Cc1cccs1)Sc1cc(O)n(-c2ccc(Br)cc2)c1O` [[1-(4-bromophenyl)-2,5-dioxopyrrolidin-3-yl] N'-[(E)-thiophen-2-ylmethylideneamino]carbamimidothioate], 8270 nM.
The result for `Cc1ccc2nc(N3C(=O)C(=O)C(C(=O)c4ccco4)C3c3ccc(C)o3)sc2c1` (stereo unspecified) [3-[2-furanyl(oxo)methyl]-4-hydroxy-1-(6-methyl-1,3-benzothiazol-2-yl)-2-(5-methyl-2-furanyl)-2H-pyrrol-5-one;oxalic acid] reads 624 nM.
Compound `CC(=O)C1C(=O)C(=O)N(c2cc(C(C)(C)C)on2)C1c1ccc(Br)cc1` (stereo unspecified) displayed an IC50 of 2490 nM.
Under `CCCOc1ccc(-n2c(O)cc(SC(=N)NN=C(C)c3cccs3)c2O)cc1` [2,5-dioxo-1-(4-propoxyphenyl)-3-pyrrolidinyl 2-[1-(2-thienyl)ethylidene]hydrazinecarbimidothioate] stands 7760 nM; under `CCCOc1cccc(C2C(C(=O)c3ccc(C)o3)C(=O)C(=O)N2c2nc(C)c(C(C)=O)s2)c1` (stereo unspecified), 4060 nM.
Under `COC(=O)c1sc(N2C(=O)C(=O)C(C(=O)c3ccc(C)o3)C2c2ccc([N+](=O)[O-])cc2)nc1C` (stereo unspecified) [methyl 2-[4-hydroxy-3-(5-methylfuran-2-carbonyl)-2-(4-nitrophenyl)-5-oxo-2H-pyrrol-1-yl]-4-methyl-1,3-thiazole-5-carboxylate] stands 636 nM; under `COc1ccc2nc(N3C(=O)C(=O)C(C(=O)c4ccco4)C3c3ccc(OC)c(OC)c3)sc2c1` (stereo unspecified) [2-(3,4-dimethoxyphenyl)-3-(furan-2-carbonyl)-4-hydroxy-1-(6-methoxy-1,3-benzothiazol-2-yl)-2H-pyrrol-5-one], 2040 nM; under `Cc1ccc2c(c1)C(=NNc1cccc(C(=O)O)c1)C(=O)N2C` [3-[(2Z)-2-(1,5-dimethyl-2-oxidanylidene-indol-3-ylidene)hydrazinyl]benzoic acid], 5070 nM.
The result for `O=C(O)c1ccc(-n2c(O)cc(SC(=Nc3ccc(F)cc3)NCc3ccc4c(c3)OCO4)c2O)cc1` [SMR000313486] reads 2890 nM; that for `Oc1ccc(CN=Nc2ccnc3cc(Cl)ccc23)c(O)c1O` [SMR000590557], 2500 nM.
For the compound `N#CC(C(=O)Nc1ccc(Cl)cc1)C(=S)Nc1ccccc1` (stereo unspecified) [(Z)-3-anilino-N-(4-chlorophenyl)-2-cyano-3-sulfanylprop-2-enamide], the IC50 was determined as 6140 nM.
The result for `CCN(CC)C(=O)NC1CC2CCCC(C1)N2Cc1ccccc1` (stereo unspecified) [1,1-diethyl-3-[9-(phenylmethyl)-9-azabicyclo[3.3.1]nonan-3-yl]urea] reads 2830 nM.
`N#CC1C(=O)NC(c2ccc(-c3cc(Cl)ccc3Cl)o2)N(c2ccccc2)C1=S` (stereo unspecified) [MLS000592167]: the IC50 was 1470 nM.
Under `Cc1cc(N2C(=O)C(=O)C(C(=O)c3cc4ccccc4o3)C2c2cccc(Cl)c2)no1` (stereo unspecified) [3-(1-benzofuran-2-ylcarbonyl)-2-(3-chlorophenyl)-1-(5-methyl-1,2-oxazol-3-yl)-4-oxidanyl-2H-pyrrol-5-one] stands 1190 nM.
`C=CCOc1c(OC)cc(CN=Nc2cccc(C(=O)O)c2)c(Br)c1Br` returned an IC50 of 2280 nM. This IC50 is about 1.9-fold higher than that of the compound before.
The result for `Cc1[nH]n(C(N)=S)c(=O)c1N=Nc1c(Br)cc(Br)cc1Br` [3-methyl-5-oxo-4-[(2,4,6-tribromophenyl)diazenyl]-4H-pyrazole-1-carbothioamide] reads 5730 nM.
Under `O=C1C(=O)N(c2nc3ccc(Cl)cc3s2)C(c2ccco2)C1C(=O)c1ccco1` (stereo unspecified) stands 987 nM.
